Laboratory results taken from ChEMBL document CHEMBL5729301, “ASK1 inhibitor compounds and uses thereof” (2022).

Molecular target: T1, Mitogen-activated protein kinase kinase kinase 5 (Homo sapiens, UniProt Q99683)
T1 sequence (Q99683 whole entry): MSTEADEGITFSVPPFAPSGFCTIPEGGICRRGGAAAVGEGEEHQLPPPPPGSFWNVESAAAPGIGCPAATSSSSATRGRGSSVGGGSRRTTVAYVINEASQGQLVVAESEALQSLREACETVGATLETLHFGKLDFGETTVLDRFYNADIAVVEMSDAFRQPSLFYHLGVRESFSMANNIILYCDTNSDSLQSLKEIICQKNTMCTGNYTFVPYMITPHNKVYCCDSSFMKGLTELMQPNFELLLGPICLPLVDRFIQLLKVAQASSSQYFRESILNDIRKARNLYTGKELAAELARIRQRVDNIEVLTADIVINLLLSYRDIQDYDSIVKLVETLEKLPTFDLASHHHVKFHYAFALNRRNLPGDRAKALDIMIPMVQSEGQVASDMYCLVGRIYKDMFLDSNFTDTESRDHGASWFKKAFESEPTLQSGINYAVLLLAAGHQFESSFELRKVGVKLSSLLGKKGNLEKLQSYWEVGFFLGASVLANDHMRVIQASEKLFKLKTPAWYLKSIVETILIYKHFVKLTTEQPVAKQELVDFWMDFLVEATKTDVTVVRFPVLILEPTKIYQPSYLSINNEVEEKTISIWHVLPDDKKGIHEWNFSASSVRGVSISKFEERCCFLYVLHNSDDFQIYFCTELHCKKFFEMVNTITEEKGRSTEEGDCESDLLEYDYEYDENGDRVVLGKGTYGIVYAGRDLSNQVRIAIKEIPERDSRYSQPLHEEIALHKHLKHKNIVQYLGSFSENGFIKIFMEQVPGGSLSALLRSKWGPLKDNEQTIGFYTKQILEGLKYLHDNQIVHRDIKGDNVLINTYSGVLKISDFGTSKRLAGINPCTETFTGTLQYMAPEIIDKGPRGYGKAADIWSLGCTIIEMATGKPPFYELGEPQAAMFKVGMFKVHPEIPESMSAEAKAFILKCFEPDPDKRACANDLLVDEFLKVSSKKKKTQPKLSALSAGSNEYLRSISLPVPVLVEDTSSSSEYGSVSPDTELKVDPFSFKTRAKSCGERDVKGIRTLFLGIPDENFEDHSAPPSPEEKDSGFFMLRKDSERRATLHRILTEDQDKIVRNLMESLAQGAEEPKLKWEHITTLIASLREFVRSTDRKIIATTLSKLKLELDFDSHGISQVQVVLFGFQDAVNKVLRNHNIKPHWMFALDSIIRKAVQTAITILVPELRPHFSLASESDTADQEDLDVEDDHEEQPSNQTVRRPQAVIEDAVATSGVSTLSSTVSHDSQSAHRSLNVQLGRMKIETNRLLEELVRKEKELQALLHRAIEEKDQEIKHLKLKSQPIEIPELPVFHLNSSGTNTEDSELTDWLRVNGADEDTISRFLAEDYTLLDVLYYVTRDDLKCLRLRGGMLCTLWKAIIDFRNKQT
Assay: Kinase Assay: The ASK1 enzymatic assay was run following Promega ASK1 Kinase Enzyme System (Cat #V3881). The kit provides the protocol, enzymes and all reagents necessary to run an assay.The compounds, enzyme, substrate and ATP were diluted in provided assay buffer. The final concentration of the enzyme was 50 nM, substrate (Myelin basic protein) 1 μg/mL and ATP 10 μM. The compound and the enzyme were pre-incubated in a 384-well white solid bottom plate (Greiner, Cat #784075) for 10 minutes. After incubation, the substrate and ATP were added and incubated for an additional 60 minutes. After 60 minutes, ADP-Glo™ was added and the plate was incubated for another 40 minutes. After 40 minutes, Kinase Detection Reagent was added and the plate was incubated for 45 minutes. After 45 minutes, the plate was read on a Perkin Elmer EnVision using luminescence read (0.5 seconds/well).

IC50: < 1000 nM
SMILES: CC(=O)Nc1cccc(-c2cc3c(s2)C(=O)N(c2cccc(-c4nncn4C4CC4)n2)C3)c1
